{"source": "ChEMBL document CHEMBL4831528", "about": "“Discovery of Novel Pterostilbene-Based Derivatives as Potent and Orally Active NLRP3 Inflammasome Inhibitors with Inflammatory Activity for Colitis” (J Med Chem, 2021)", "key": {"[1]": {"target": "T1, NACHT, LRR and PYD domains-containing protein 3 (Homo sapiens, UniProt Q96P20)", "T1 sequence (Q96P20 whole entry, the tested form may be a part)": "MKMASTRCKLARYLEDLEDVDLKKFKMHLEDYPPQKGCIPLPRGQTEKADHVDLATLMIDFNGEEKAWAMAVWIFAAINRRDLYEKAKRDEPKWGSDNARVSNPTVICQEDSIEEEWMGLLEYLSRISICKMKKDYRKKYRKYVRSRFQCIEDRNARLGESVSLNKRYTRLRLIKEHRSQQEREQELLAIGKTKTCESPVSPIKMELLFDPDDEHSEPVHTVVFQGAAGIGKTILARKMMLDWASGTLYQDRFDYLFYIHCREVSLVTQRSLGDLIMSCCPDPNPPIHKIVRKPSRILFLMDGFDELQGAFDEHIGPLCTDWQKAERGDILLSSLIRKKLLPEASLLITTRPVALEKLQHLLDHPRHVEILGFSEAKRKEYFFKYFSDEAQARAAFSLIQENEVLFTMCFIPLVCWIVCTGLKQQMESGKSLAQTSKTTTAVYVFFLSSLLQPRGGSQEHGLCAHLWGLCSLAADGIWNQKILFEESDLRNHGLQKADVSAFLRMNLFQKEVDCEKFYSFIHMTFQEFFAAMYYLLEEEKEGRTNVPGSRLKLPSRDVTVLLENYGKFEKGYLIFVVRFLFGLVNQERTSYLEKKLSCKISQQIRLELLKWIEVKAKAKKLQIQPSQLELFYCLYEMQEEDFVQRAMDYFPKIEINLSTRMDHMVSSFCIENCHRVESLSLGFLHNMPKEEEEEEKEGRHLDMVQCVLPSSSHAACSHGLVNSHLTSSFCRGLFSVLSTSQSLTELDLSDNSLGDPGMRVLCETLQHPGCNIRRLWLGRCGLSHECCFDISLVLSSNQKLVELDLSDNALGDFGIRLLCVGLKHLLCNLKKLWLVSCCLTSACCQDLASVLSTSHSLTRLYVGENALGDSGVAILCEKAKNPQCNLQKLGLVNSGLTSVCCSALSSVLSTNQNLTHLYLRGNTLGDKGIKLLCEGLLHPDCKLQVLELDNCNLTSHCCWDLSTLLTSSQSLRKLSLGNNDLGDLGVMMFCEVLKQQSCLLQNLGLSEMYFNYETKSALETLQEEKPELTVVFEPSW", "assay": "Binding affinity to His-GFP fused tagged NLRP3 (unknown origin) expressed in HEK293T incubated for 30 mins by microscale thermophoresis assay", "format": "cell-based"}, "[2]": {"target": "NACHT, LRR and PYD domains-containing protein 3 (Mus musculus) (UniProt Q8R4B8)", "sequence (Q8R4B8 whole entry, the tested form may be a part)": "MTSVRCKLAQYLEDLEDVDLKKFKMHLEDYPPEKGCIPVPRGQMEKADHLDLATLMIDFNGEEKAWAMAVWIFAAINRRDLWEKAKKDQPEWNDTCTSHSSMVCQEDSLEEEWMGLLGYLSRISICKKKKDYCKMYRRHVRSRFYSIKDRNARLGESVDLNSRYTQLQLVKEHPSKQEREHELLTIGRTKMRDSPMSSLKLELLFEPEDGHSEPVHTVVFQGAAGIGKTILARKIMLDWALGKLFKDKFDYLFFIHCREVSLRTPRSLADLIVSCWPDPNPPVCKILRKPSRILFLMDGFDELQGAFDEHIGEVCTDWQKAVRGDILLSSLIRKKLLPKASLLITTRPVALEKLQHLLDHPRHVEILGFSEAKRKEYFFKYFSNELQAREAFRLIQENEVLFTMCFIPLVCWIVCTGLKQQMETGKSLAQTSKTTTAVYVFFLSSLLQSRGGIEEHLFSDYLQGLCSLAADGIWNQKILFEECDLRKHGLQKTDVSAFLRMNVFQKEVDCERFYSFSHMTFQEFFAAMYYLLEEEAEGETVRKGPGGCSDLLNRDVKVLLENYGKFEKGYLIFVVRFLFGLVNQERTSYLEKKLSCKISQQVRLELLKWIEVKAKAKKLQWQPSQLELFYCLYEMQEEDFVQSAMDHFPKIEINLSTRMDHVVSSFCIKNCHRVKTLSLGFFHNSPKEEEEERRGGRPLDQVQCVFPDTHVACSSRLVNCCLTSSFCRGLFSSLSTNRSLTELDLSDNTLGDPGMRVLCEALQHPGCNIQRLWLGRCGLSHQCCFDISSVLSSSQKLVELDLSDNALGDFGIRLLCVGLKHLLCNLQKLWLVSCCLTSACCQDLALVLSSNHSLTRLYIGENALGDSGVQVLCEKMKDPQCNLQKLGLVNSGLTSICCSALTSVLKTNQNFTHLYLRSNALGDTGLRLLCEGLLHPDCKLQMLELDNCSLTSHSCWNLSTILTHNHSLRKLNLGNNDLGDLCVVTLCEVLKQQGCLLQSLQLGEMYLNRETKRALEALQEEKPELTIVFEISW", "assay": "Inhibition of NLRP3 inflammasome activation in LPS-stimulated mouse bone marrow-derived macrophages assessed as reduction in pro caspase1 p20 in cell lysate at 2 uM preincubated for 30 mins followed by ATP addition and measured after 0.5 hrs by Western blot analysis", "format": "subcellular", "conditions": "Macrophage, time 60.0 min"}, "[3]": {"assay": "Toxicity in C57BL/6 mouse assessed as effect on liver at 20 to 40 mg/kg, ig administered for 28 days", "format": "organism-based", "conditions": "in vivo, po, 672 h, dose 20-40 mg/kg, time 28 day"}, "Mus musculus [4]": {"test_system": "Mus musculus", "assay": "Downregulation of phosphorylated p65 expression in colon of C57BL/6 mouse model of DSS-induced ulcerative colitis at 10 to 20 mg/kg, ig administered for 7 days by Western blot analysis", "format": "functional, organism-based", "conditions": "dose 10-20 mg/kg, time 7.0 day"}, "Mus musculus [5]": {"test_system": "Mus musculus", "assay": "Downregulation of TNFalpha expression in C57BL/6 mouse model of DSS-induced ulcerative colitis at 10 to 20 mg/kg, ig administered for 7 days by ELISA", "format": "functional, organism-based", "conditions": "dose 10-20 mg/kg, time 7.0 day"}, "[6]": {"target": "NACHT, LRR and PYD domains-containing protein 3 (Mus musculus) (UniProt Q8R4B8)", "assay": "Inhibition of NLRP3 inflammasome activation in LPS-stimulated mouse bone marrow-derived macrophages assessed as reduction in cleaved IL-1beta secretion in supernatant at 2 uM preincubated for 30 mins followed by ATP addition and measured after 0.5 hrs by Western blot analysis", "format": "tissue-based", "conditions": "Macrophage, time 60.0 min"}, "[7]": {"target": "NACHT, LRR and PYD domains-containing protein 3 (Mus musculus) (UniProt Q8R4B8)", "assay": "Inhibition of NLRP3 inflammasome activation in LPS-stimulated mouse J774A.1 cells assessed as inhibition of cell pyrolysis at 10 uM incubated for 1 hr followed by ATP addition and measured after 30 mins by Hoechst 33342/propidium iodide staining based high content screening method relative to control", "conditions": "J774.A1, time 1.5 hrs"}, "Mus musculus [8]": {"test_system": "Mus musculus", "assay": "Downregulation of NLRP3 expression in colon of C57BL/6 mouse model of DSS-induced ulcerative colitis at 10 to 20 mg/kg, ig administered for 7 days by Western blot analysis", "format": "functional, organism-based", "conditions": "dose 10-20 mg/kg, time 7.0 day"}, "[9]": {"assay": "Toxicity in C57BL/6 mouse assessed as induction of convulsion at 20 to 40 mg/kg, ig administered for 28 days", "format": "organism-based", "conditions": "in vivo, po, 672 h, dose 20-40 mg/kg, time 28 day"}, "Mus musculus [10]": {"test_system": "Mus musculus", "assay": "Protection against DSS-induced acute ulcerative colitis in C57BL/6 mouse assessed as reduction in pathological index score at 10 to 20 mg/kg, ig administered for 7 days by Hematoxylin and eosin staining based optical microscopy", "format": "functional, organism-based", "conditions": "dose 10-20 mg/kg, time 7.0 day"}, "Mus musculus [11]": {"test_system": "Mus musculus", "assay": "In vivo inhibition of NLRP3 inflammasome activation in C57BL/6 mouse model of DSS-induced ulcerative colitis assessed as reduction in IL-1beta expression at 10 to 20 mg/kg, ig administered for 7 days by ELISA", "format": "functional, organism-based", "conditions": "dose 10-20 mg/kg, time 7.0 day"}, "BMDM [12]": {"test_system": "BMDM", "assay": "Effect on pro-IL1beta expression in LPS-stimulated mouse bone marrow-derived macrophages at 0.5 to 2 uM preincubated for 30 mins followed by nigericin addition and measured after 30 mins by Western blot analysis", "format": "functional, tissue-based", "conditions": "dose 0.5-2 µM, time 60.0 min"}, "Mus musculus [13]": {"test_system": "Mus musculus", "assay": "In vivo inhibition of NLRP3 inflammasome activation in C57BL/6 mouse assessed as reduction in MPO activity at 10 to 20 mg/kg, ig administered for 7 days by ELISA", "format": "functional, organism-based", "conditions": "dose 10-20 mg/kg, time 7.0 day"}, "BMDM [14]": {"test_system": "BMDM", "assay": "Effect on NLRP3 expression in LPS-stimulated mouse bone marrow-derived macrophages at 0.5 to 2 uM preincubated for 30 mins followed by nigericin addition and measured after 30 mins by Western blot analysis", "format": "functional, tissue-based", "conditions": "dose 0.5-2 µM, time 60.0 min"}, "[15]": {"target": "NACHT, LRR and PYD domains-containing protein 3 (Mus musculus) (UniProt Q8R4B8)", "assay": "Inhibition of NLRP3 inflammasome activation in LPS-stimulated mouse bone marrow-derived macrophages assessed as reduction in caspase1 p20 in supernatant at 2 uM preincubated for 30 mins followed by MSU addition and measured after 0.5 hrs by Western blot analysis", "format": "tissue-based", "conditions": "Macrophage, time 60.0 min"}, "Mus musculus [16]": {"test_system": "Mus musculus", "assay": "Anti-inflammatory activity in C57BL/6 mouse DSS-induced acute ulcerative colitis assessed as reduction in disease index at 10 to 20 mg/kg, ig administered for 7 days", "format": "functional, organism-based", "conditions": "dose 10-20 mg/kg, time 7.0 day"}, "[17]": {"assay": "Half life in human liver microsomes preincubated for 5 mins followed by NADPH addition and measured after 5 to 60 mins by LC-MS/MS analysis", "format": "ADME, Microsome"}, "[18]": {"target": "NACHT, LRR and PYD domains-containing protein 3 (Mus musculus) (UniProt Q8R4B8)", "assay": "Inhibition of NLRP3 inflammasome activation in LPS-stimulated mouse bone marrow-derived macrophages assessed as attenuation of ASC dimer at 1 to 4 uM preincubated for 30 mins followed by nigericin addition and measured after 0.5 hrs by Western blot analysis", "format": "tissue-based", "conditions": "Macrophage, dose 1-4 µM"}, "Mus musculus [19]": {"test_system": "Mus musculus", "assay": "Protection against DSS-induced acute ulcerative colitis in C57BL/6 mouse assessed as reduction in bloody stool at 10 to 20 mg/kg, ig administered for 7 days", "format": "functional, organism-based", "conditions": "dose 10-20 mg/kg, time 7.0 day"}, "[20]": {"target": "NACHT, LRR and PYD domains-containing protein 3 (Mus musculus) (UniProt Q8R4B8)", "assay": "Binding affinity to NLRP3 in mouse J774A1 cells assessed as thermal stabilization at 50 uM incubated for 30 mins by cellular thermal shift assay", "format": "cell-based", "conditions": "J774.A1"}, "[21]": {"target": "T1, NACHT, LRR and PYD domains-containing protein 3", "assay": "Inhibition of recombinant human NLRP3 preincubated for 15 mins followed by ATP addition by ADP-Glo kinase assay"}, "[22]": {"target": "NACHT, LRR and PYD domains-containing protein 3 (Mus musculus, UniProt Q8R4B8)", "sequence (Q8R4B8 whole entry, the tested form may be a part)": "as above", "assay": "Inhibition of NLRP3 inflammasome activation in LPS-stimulated mouse bone marrow-derived macrophages assessed as reduction in IL-1beta secretion preincubated for 30 mins followed by nigericin addition and measured after 30 mins by ELISA", "format": "tissue-based, Macrophage"}, "[23]": {"target": "NACHT, LRR and PYD domains-containing protein 3 (Mus musculus) (UniProt Q8R4B8)", "assay": "Inhibition of NLRP3 inflammasome activation in LPS-stimulated mouse bone marrow-derived macrophages assessed as reduction in activated caspase1 p20 in supernatant at 2 uM preincubated for 30 mins followed by ATP addition and measured after 0.5 hrs by Western blot analysis", "format": "tissue-based", "conditions": "Macrophage, time 60.0 min"}, "[24]": {"assay": "Toxicity in C57BL/6 mouse assessed as weight gain at 20 to 40 mg/kg, ig administered for 28 days", "format": "organism-based", "conditions": "in vivo, po, 672 h, dose 20-40 mg/kg, time 28 day"}, "[25]": {"target": "T1, NACHT, LRR and PYD domains-containing protein 3", "assay": "Binding affinity to His-GFP fused tagged NLRP3 (unknown origin) expressed in HEK293T assessed as thermal stabilization at 10 uM incubated for 30 mins by cellular thermal shift assay", "format": "cell-based"}, "[26]": {"assay": "Toxicity in C57BL/6 mouse assessed as effect on spleen at 20 to 40 mg/kg, ig administered for 28 days", "format": "organism-based", "conditions": "in vivo, po, 672 h, dose 20-40 mg/kg, time 28 day"}, "[27]": {"target": "NACHT, LRR and PYD domains-containing protein 3 (Mus musculus) (UniProt Q8R4B8)", "assay": "Inhibition of NLRP3 inflammasome activation in LPS-stimulated mouse bone marrow-derived macrophages assessed as reduction in pro caspase1 secretion in cell lysate at 2 uM preincubated for 30 mins followed by nigericin addition and measured after 0.5 hrs by Western blot analysis", "format": "subcellular", "conditions": "Macrophage, time 60.0 min"}, "[28]": {"assay": "Tmax in mouse at 20 mg/kg, po measured up to 24 hrs by LC-MS/MS analysis", "format": "ADME, organism-based", "conditions": "in vivo"}, "[29]": {"assay": "Cmax in mouse at 2 mg/kg, iv measured after 0.08 to 24 hrs by LC-MS/MS analysis", "format": "ADME, organism-based", "set-up": "route intravenous, time 0.08-24 hrs, dose 2 mg/kg", "conditions": "in vivo"}, "BMDM [30]": {"test_system": "BMDM", "assay": "Effect on pro-caspase1 expression in LPS-stimulated mouse bone marrow-derived macrophages at 0.5 to 2 uM preincubated for 30 mins followed by nigericin addition and measured after 30 mins by Western blot analysis", "format": "functional, tissue-based", "conditions": "dose 0.5-2 µM, time 60.0 min"}, "[31]": {"assay": "Toxicity in C57BL/6 mouse assessed as effect on kidney at 20 to 40 mg/kg, ig administered for 28 days", "format": "organism-based", "conditions": "in vivo, po, 672 h, dose 20-40 mg/kg, time 28 day"}, "[32]": {"assay": "Intrinsic clearance in human liver microsomes preincubated for 5 mins followed by NADPH addition and measured after 5 to 60 mins by LC-MS/MS analysis", "format": "ADME, Microsome", "conditions": "time 5-60 min, read-out: CLH"}}, "note": "Active and inactive are the calls of the source. No cut-off for these calls is given here.", "data": [{"smiles": "COc1cc(/C=C/c2ccc(NC(=O)C3CC3)cc2)c(/C=C/[N+](=O)[O-])c(OC)c1", "values": [{"measurement": "Kd", "setting": "[1]", "value": 263, "unit": "nM"}, {"measurement": "inhibition", "setting": "[2]", "value": "Active"}, {"measurement": "Activity", "setting": "[3]", "value": "Non-Toxic"}, {"measurement": "Activity", "setting": "Mus musculus [4]", "value": "Active"}, {"measurement": "Activity", "setting": "Mus musculus [5]", "value": "Active"}, {"measurement": "inhibition", "setting": "[6]", "value": "Active"}, {"measurement": "inhibition", "setting": "[7]", "value": 73.1, "unit": "%"}, {"measurement": "Activity", "setting": "Mus musculus [8]", "value": "Active"}, {"measurement": "Activity", "setting": "[9]", "value": "Non-Toxic"}, {"measurement": "Activity", "setting": "Mus musculus [10]", "value": "Active"}, {"measurement": "inhibition", "setting": "Mus musculus [11]", "value": "Active"}, {"measurement": "Activity", "setting": "BMDM [12]", "value": "inactive"}, {"measurement": "inhibition", "setting": "Mus musculus [13]", "value": "Active"}, {"measurement": "Activity", "setting": "BMDM [14]", "value": "inactive"}, {"measurement": "inhibition", "setting": "[15]", "value": "Active"}, {"measurement": "Activity", "setting": "Mus musculus [16]", "value": "Active"}, {"measurement": "half-life", "setting": "[17]", "value": 1.13, "unit": "h"}, {"measurement": "inhibition", "setting": "[18]", "value": "Active"}, {"measurement": "Activity", "setting": "Mus musculus [19]", "value": "Active"}, {"measurement": "Activity", "setting": "[20]", "value": "Active"}, {"measurement": "inhibition", "setting": "[21]", "value": "Dose-Dependent Effect"}, {"measurement": "IC50", "setting": "[22]", "value": 560, "unit": "nM"}, {"measurement": "inhibition", "setting": "[23]", "value": "Active"}, {"measurement": "Activity", "setting": "[24]", "value": "Non-Toxic"}, {"measurement": "Activity", "setting": "[25]", "value": "Active"}, {"measurement": "Activity", "setting": "[26]", "value": "Non-Toxic"}, {"measurement": "inhibition", "setting": "[27]", "value": "Active"}, {"measurement": "Tmax", "setting": "[28]", "value": 2.33, "unit": "h"}, {"measurement": "Cmax", "setting": "[29]", "value": 355, "unit": "ng/mL"}, {"measurement": "Activity", "setting": "BMDM [30]", "value": "inactive"}, {"measurement": "Activity", "setting": "[31]", "value": "Non-Toxic"}, {"measurement": "microsomal CLint", "setting": "[32]", "value": 20.3, "unit": "µL/min/mg"}]}]}
